Where “and” joins values, the source holds several entries; their conditions need not be identical. Equal entries are not always repeated. Structures can show the parent of a compound that is named as a salt.
Key:
N2 non-transgenic worms = test: Screen of putative NALCN antagonists by motor behavior, N2 control worms on compound agar; format: in vivo, C. elegans
Method: (§1) Compounds were dissolved in the vehicle in which they were the most soluble (DMSO or molecular grade water). […] Microwave to dissolve (note: this will boil over rapidly). The screen is performed in a 24-well flat-bottom plate. […] Proceed to next step quickly. […] Immediately begin mixing with pipette tip until the compound dissolves (at this point the mixture should be clear). Fill the remainder of the plate (I usually prepare duplicate wells for each compound) and cover with aluminum foil to protect the compounds from light. Leave at room temperature overnight to allow the plate to dry before screening. […] Prepare at least 4 small plates for each line. […] Pick a line to start with. […] Start timing as soon as a well has been filled. […] Touch the tail of each worm gently with a platinum wire to promote motion. Record any observations. (I like to record the proportion of worms that retain the original phenotype, the proportion that show full body paralysis/death, and the proportion that show paralysis of the neck only).

[1] = test system: EG9152 GOF worms (C. elegans NALCN(gf) model); test: Screen of putative NALCN antagonists by motor behavior, GOF worms on compound agar; format: in vivo
Method: as §1

Outward K+ currents = test: Electrophysiology tests, whole-cell recording of E16 embryonic cortical neurons; format: cell-based; conditions: mouse E16 cortical neurons, ramp −60~+80 mV, quantified at +80 mV (figure legends)
Method: Briefly, the cerebral cortex was isolated from embryos of E16 pregnant mouse (C57/BL6) and cut into small cubes. After being digested in 0.05% Trypsin for 25-30 mins in 37° C. in incubator, the Trypsin was neutralized with 1-2 ml DMEM (containing 10% FBS. The pellets were then triturated with a pipette for 10-15 time and then diluted into plating media (DMEM with 10% FBS). The cell suspension was sieved through a […] nylon filter and plated onto cover slips coated with poly-D-lysine (PDL) in 35 mm dishes at density of 2×10^5 cells per dish. After culturing for 2 hrs in incubator, the plating media was replaced with the following media: Neurobasal media supplemented with 2% B27. Neurobasal media was changed every 3 days until the experiment start.
Membrane potentials of neurons were recorded in whole-cell configuration at 20° C.-22° C. in a mouse E16 embryonic cortical neuron preparation. The pipette solution contained (in mM): K-Gluconate 115; KCl 25; CaCl2) 0.1; MgCl2 5; BAPTA 1; HEPES 10; Na2ATP 5; Na2GTP 0.5; cAMP 0.5; cGMP 0.5, pH 7.2 with KOH, 320 mOsm. The bath solution consisted of (in mM): NaCl 150; KCl 5; CaCl2) 5; MgCl2 1; glucose 10; sucrose 5; HEPES 15, pH 7.3 with NaOH, 330 mOsm. For zero and 15 Na+ solution, extracellular Na+ ([Na+]o) was replaced with N-methyl-D-glucamine (NMDG+) or Tris+. RMP was recorded at 0 pA. […]

With `CCOC(=O)c1ccc(N)cc1` [Benzocaine] the “proportion of worms: N2” value (N2 non-transgenic worms; 2.4 mM, 20 min, Trials 3-4) was 20 min: 28% N2, and 20 min: 27% N2,, the “proportion of worms: sluggish N2” value (N2 non-transgenic worms; 4.71 mM, 30 min, Trial 2) was 30 min: 18% and the “proportion of worms: LOF” value (N2 non-transgenic worms; 4.71 mM, 1 hr, Trials 1-2) was 1 hr: 100%. The “proportion of worms: rescue” value ([1]; 2.4 mM, 20 min, Trials 3-4) was 20 min: 40% and 20 min: 33%, the “proportion of worms: rescue” value ([1]; 2.4 mM, 40 min, Trials 3-4) was 40 min: 8% and 40 min: 11% and the “Rescue worms still move fairly ...” value ([1]; 4.71 mM, 30 min, Trial 1) was “quickly”. The “amplitude of body bends overall” value ([1]; 4.71 mM, 30 min, Trial 1) was “Reduced”, the “proportion of worms: rescue” value ([1]; 4.71 mM, 30 min, Trials 1-2) was 30 min: 38% and 30 min: 8% and the “proportion of worms: LOF” value ([1]; 4.71 mM, 1 hr, Trials 1-2) was 1 hr: 100%. For the same compound, the “paralysis of neck and reduced body bend amplitude but not as obvious a phenotype as Verapamil” value ([1]; remark for the trials at 4.71 mM and 2.4 mM) was “Show”.

`CN1CCOC(c2ccccc2)c2ccccc2C1` (centres unmarked) [Nefopam] was tested, and the “proportion of worms: “rescue”” value (N2 non-transgenic worms; 3.3 mM, 20 min, Trials 3-4) was 20 min: 15% and 20 min: 7%, the “proportion of worms: “rescue”” value (N2 non-transgenic worms; 6.65 mM, 20 min, Trials 1-2) was 20 min: 9% and 20 min: 23% and the “proportion of worms: LOF” value (N2 non-transgenic worms; 6.65 mM, 50 min, Trials 1-2) was 50 min: 100%. For the same compound, the “effect on Outward K+ currents” value (Outward K+ currents) was “blocked”, the “proportion of worms: LOF” value ([1]; 3.3 mM, 20 min, Trial 3) was “rescue, 30%” and the “proportion of worms: GOF” value ([1]; 3.3 mM, 20 min, Trial 4) was “rescue, 31% GOF”. For the same compound, the “proportion of worms: rescue” value ([1]; 3.3 mM, 20 min, Trials 3-4) was 20 min: 70% and 20 min: 69%, the “proportion of worms: GOF” value ([1]; 3.3 mM, 40 min, Trial 3) was “rescue, 8% GOF,” and the “proportion of worms: LOF” value ([1]; 3.3 mM, 40 min, Trial 3) was 67% LOF. For the same compound, the “proportion of worms: rescue” value ([1]; 3.3 mM, 40 min, Trials 3-4 (Trial 4: sluggish)) was 40 min: 100% and 40 min: 25%, the “proportion of worms: rescue” value ([1]; 6.65 mM, 20 min, Trials 1-2) was 20 min: 33% and 20 min: 90% and the “proportion of worms: rescue” value ([1]; 6.65 mM, 50 min, Trial 2) was 50 min: 60%.

In the case of `CCOC(=O)C1=C(COCCN)NC(C)=C(C(=O)OC)C1c1ccccc1Cl` (centres unmarked) [Amlodipine Besylate, Amlodipine], the “proportion of worms: “rescue” (slight but present)” value (N2 non-transgenic worms; 1.25 mM, 30 mins, Trial 4) is reported as 30 mins: 50%, the “proportion of worms: WT(N2)” value (N2 non-transgenic worms; 1.25 mM, 1 hr, Trial 4) is reported as 10% WT(N2) and the “proportion of worms: rescue” value (N2 non-transgenic worms; 1.25 mM, 1 hr, Trial 4) is reported as 1 hr: 90% rescue,. The “effect on Outward K+ currents” value (Outward K+ currents) was “blocked”, the “proportion of worms: GOF” value ([1]; 1.25 mM, 30 mins, Trial 4) was “rescue, 36% GOF” and the “proportion of worms: rescue” value ([1]; 1.25 mM, 30 mins, Trial 4) was 30 mins: 64%. The “proportion of worms: GOF” value ([1]; 1.25 mM, 1 hr, Trial 4) was 27%, the “proportion of worms: LOF” value ([1]; 1.25 mM, 1 hr, Trial 4) was 9% and the “proportion of worms: rescue” value ([1]; 1.25 mM, 1 hr, Trial 4) was 1 hr: 64% rescue,.

In the case of `COc1cc2c3cc1Oc1c(OC)c(OC)cc4c1[C@@H](Cc1ccc(O)c(c1)Oc1ccc(cc1)C[C@@H]3N(C)CC2)N(C)CC4` [Berbamine dihydrochloride, Berbamine], the response (N2 non-transgenic worms; 4.4 mM, 30 min, Trial 1) is reported as 30 min: No, the “proportion of worms: “rescue”” value (N2 non-transgenic worms; 4.4 mM, 30 min, Trials 2-3) is reported as 30 min: 70% and 30 min: 30% and the “phenotype proportions at 1 hr compared with 30 min” value (N2 non-transgenic worms; 4.4 mM, 1 hr, Trial 3) is reported as 1 hr: no change. The “proportion of worms: LOF” value ([1]; 4.4 mM, 30 min, Trial 3) was “GOF, 25% LOF”, the “proportion of worms: rescue” value ([1]; 4.4 mM, 30 min, Trials 1-3) was 30 min: 20% and 30 min: 70% and 30 min: 33% and the “proportion of worms: rescue” value ([1]; 4.4 mM, 1 hr, Trial 1) was 1 hr: 50-60%. The “phenotype proportions at 1 hr compared with 30 min” value ([1]; 4.4 mM, 1 hr, Trials 2-3) was 1 hr: no change.

Source: US20240423952A1, “COMPOSITIONS AND METHODS FOR TREATING CONGENITAL DISORDERS” (Ibagen Pharmaceuticals, Inc., priority 2021, published 2024)
